Laboratory results as given in ChEMBL document CHEMBL5303766, “Data for DCP probe FHT-2344” (2022).

Experiments:
[1] = biological target: T1, Ephrin type-B receptor 3 (Homo sapiens) (UniProt P54753); experiment: EPHB3 SGC Tm panel (DSF); conditions: for ΔTm: Compound concentration 10.0 uM
T1 sequence (whole entry): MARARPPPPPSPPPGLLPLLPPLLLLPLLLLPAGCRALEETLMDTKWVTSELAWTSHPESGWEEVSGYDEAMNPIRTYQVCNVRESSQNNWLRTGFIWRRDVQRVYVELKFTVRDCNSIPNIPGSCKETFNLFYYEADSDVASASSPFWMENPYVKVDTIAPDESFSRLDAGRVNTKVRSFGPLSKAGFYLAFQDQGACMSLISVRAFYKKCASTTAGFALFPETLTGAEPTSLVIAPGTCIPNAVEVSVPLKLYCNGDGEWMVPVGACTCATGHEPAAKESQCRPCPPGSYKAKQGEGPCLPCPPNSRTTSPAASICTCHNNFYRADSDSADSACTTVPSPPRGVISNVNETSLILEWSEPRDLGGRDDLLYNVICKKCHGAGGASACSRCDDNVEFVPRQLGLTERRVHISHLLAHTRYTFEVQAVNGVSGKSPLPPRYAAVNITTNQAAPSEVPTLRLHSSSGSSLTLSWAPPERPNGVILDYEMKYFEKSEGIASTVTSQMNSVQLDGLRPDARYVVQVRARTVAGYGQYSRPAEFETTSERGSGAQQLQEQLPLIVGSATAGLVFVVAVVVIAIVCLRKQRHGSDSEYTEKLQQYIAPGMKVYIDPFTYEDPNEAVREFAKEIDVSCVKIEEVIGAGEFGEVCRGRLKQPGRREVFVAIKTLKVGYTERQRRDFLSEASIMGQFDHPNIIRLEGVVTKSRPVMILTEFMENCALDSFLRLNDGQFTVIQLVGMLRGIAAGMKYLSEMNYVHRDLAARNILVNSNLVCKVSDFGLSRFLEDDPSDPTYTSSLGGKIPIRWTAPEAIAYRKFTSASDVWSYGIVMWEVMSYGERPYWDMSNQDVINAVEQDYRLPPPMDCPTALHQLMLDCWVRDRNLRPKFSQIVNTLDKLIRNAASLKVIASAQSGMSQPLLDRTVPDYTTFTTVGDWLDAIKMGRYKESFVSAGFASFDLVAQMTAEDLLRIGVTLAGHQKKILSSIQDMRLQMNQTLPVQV

[2] = biological target: Dual specificity protein kinase CLK3 (Homo sapiens) (UniProt P49761); experiment: CLK3 SGC Tm panel (DSF); conditions: for ΔTm: Compound concentration 10.0 uM
[3] = biological target: Delta-type opioid receptor (Homo sapiens) (UniProt P41143); conditions: Compound concentration 10.0 uM
[4] = biological target: SRSF protein kinase 3 (Homo sapiens) (UniProt Q9UPE1); experiment: MSSK1 SGC Tm panel (DSF); conditions: for ΔTm: Compound concentration 10.0 uM
[5] = biological target: Transcription initiation factor TFIID subunit 1 (Homo sapiens) (UniProt P21675); experiment: TAF1 SGC Tm panel (DSF); conditions: for ΔTm: Compound concentration 10.0 uM
Transcription initiation factor TFIID subunit 1 (Homo sapiens), sequence (P21675 whole entry): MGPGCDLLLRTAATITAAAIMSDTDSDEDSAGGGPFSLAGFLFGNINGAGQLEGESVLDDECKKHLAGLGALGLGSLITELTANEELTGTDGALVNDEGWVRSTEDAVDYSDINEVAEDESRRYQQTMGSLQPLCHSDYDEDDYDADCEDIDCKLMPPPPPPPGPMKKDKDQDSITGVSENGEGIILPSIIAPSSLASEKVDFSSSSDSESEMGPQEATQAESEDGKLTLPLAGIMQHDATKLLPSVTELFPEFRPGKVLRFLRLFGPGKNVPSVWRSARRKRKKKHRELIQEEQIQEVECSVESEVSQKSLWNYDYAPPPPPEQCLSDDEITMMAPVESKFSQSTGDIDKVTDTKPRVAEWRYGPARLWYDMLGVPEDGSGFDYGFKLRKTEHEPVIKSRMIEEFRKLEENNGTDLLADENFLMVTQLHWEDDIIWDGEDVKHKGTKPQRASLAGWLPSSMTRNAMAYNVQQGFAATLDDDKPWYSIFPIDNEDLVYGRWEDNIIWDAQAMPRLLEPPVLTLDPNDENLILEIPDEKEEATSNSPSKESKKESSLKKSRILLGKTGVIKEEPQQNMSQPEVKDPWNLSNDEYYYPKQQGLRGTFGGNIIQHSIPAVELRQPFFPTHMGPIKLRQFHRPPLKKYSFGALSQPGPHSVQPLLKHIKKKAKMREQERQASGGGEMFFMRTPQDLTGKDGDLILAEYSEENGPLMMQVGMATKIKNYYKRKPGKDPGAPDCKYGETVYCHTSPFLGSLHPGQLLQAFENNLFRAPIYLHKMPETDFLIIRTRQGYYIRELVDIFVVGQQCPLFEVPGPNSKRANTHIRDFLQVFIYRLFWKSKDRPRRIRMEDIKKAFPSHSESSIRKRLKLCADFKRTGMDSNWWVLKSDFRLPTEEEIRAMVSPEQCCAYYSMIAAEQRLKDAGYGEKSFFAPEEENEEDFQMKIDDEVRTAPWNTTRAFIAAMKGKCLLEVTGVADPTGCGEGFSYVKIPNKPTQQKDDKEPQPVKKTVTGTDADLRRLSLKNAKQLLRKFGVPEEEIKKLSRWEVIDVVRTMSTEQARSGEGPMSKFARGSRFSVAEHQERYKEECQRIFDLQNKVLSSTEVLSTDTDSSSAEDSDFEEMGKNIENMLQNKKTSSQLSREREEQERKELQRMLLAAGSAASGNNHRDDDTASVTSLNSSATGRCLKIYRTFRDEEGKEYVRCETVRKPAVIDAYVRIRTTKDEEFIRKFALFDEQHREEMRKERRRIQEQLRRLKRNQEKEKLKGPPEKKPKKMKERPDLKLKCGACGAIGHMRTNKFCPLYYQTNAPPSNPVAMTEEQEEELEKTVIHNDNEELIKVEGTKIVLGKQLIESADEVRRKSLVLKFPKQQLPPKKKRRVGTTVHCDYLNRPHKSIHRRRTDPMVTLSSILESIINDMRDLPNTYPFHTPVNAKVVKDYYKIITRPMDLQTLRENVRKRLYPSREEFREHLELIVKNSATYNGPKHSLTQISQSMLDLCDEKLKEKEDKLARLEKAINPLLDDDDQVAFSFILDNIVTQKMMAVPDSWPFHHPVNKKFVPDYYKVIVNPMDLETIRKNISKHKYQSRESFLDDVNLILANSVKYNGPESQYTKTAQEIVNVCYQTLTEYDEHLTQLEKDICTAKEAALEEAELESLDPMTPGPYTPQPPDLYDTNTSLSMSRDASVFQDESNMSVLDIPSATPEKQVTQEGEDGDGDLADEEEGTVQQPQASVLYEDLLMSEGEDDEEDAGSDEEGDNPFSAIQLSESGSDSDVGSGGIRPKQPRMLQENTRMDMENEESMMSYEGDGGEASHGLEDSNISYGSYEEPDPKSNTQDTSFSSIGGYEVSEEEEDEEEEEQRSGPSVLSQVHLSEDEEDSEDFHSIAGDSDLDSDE

[6] = biological target: 5-hydroxytryptamine receptor 2B (Homo sapiens, UniProt P41595); conditions: Compound concentration 10.0 uM
[7] = biological target: Muscarinic acetylcholine receptor M4 (Homo sapiens) (UniProt P08173); conditions: Compound concentration 10.0 uM
[8] = biological target: Ephrin type-A receptor 2 (Homo sapiens) (UniProt P29317); experiment: EPHA2 SGC Tm panel (DSF); conditions: for ΔTm: Compound concentration 10.0 uM
Ephrin type-A receptor 2 (Homo sapiens), sequence (P29317 whole entry): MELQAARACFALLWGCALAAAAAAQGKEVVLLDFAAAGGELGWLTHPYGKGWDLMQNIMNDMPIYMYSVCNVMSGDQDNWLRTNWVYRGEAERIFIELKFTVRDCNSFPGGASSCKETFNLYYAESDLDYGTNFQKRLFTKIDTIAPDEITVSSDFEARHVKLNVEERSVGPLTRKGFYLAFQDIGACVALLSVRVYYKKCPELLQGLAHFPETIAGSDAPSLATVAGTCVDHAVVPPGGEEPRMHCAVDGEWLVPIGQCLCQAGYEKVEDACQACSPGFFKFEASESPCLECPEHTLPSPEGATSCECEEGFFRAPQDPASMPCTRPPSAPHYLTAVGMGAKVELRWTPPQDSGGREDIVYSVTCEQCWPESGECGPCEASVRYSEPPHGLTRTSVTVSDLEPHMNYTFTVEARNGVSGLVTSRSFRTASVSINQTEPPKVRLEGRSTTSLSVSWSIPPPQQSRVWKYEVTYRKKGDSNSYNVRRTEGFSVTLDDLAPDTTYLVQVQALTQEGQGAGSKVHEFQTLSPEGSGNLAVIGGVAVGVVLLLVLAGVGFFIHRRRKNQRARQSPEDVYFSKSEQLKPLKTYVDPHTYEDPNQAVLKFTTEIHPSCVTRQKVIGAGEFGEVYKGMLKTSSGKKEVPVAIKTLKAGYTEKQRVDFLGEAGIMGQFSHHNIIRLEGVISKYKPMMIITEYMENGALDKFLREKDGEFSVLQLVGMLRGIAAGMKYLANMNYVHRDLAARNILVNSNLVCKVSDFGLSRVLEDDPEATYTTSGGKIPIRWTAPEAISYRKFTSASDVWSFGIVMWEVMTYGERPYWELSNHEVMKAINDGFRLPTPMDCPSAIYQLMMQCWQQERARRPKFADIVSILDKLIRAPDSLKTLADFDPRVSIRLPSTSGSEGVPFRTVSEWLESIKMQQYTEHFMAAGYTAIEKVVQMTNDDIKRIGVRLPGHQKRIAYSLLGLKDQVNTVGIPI

[9] = biological target: T2, Aurora kinase A (Homo sapiens) (UniProt O14965); experiment: STK6 SGC Tm panel (DSF); conditions: for ΔTm: Compound concentration 10.0 uM
T2 sequence (whole entry): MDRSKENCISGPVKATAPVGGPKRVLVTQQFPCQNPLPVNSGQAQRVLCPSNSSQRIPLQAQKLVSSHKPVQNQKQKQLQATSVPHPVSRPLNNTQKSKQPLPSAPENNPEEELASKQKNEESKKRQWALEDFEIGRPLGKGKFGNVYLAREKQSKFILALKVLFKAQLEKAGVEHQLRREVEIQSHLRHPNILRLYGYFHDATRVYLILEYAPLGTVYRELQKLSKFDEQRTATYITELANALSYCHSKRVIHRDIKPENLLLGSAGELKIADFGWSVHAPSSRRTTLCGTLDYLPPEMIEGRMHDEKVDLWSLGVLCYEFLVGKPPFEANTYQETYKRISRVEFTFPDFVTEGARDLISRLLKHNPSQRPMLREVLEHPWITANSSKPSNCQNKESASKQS

[10] = biological target: Ephrin type-A receptor 7 (Homo sapiens) (UniProt Q15375); experiment: EPHA7 SGC Tm panel (DSF); conditions: for ΔTm: Compound concentration 10.0 uM
Ephrin type-A receptor 7 (Homo sapiens), sequence (Q15375 28-998 limits assumed): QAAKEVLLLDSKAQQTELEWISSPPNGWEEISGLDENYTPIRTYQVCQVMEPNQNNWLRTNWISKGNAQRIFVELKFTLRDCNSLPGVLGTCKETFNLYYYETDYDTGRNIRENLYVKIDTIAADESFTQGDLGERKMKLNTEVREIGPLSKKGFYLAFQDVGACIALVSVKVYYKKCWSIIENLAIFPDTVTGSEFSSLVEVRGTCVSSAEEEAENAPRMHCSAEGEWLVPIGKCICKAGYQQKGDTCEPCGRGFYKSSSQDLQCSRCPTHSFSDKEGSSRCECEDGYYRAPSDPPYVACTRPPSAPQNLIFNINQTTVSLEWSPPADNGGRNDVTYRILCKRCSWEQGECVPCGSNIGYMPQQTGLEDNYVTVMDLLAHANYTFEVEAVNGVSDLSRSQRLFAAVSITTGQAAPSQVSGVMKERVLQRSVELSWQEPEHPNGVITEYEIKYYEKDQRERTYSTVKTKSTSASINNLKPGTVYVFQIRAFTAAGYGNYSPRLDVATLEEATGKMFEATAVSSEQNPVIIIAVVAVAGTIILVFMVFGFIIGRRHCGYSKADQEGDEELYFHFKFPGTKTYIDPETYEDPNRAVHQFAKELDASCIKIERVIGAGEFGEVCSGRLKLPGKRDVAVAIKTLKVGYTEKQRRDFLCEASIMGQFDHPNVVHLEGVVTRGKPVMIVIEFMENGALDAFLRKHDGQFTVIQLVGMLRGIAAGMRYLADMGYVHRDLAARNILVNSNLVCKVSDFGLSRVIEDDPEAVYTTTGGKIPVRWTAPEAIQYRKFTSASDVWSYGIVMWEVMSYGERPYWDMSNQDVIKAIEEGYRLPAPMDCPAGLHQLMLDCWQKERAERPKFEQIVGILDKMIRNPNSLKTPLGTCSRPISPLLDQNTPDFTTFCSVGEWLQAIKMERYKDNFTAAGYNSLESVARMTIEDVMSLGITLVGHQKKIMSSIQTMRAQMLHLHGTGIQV

[11] = biological target: Mitogen-activated protein kinase 1 (Homo sapiens) (UniProt P28482); experiment: MAPK1 SGC Tm panel (DSF); conditions: for ΔTm: Compound concentration 10.0 uM
[12] = biological target: Alpha-2C adrenergic receptor (Homo sapiens) (UniProt P18825); conditions: Compound concentration 10.0 uM
[13] = biological target: Maternal embryonic leucine zipper kinase (Homo sapiens) (UniProt Q14680); experiment: MELK SGC Tm panel (DSF); conditions: for ΔTm: Compound concentration 10.0 uM
Maternal embryonic leucine zipper kinase (Homo sapiens), sequence (Q14680 whole entry, looked up): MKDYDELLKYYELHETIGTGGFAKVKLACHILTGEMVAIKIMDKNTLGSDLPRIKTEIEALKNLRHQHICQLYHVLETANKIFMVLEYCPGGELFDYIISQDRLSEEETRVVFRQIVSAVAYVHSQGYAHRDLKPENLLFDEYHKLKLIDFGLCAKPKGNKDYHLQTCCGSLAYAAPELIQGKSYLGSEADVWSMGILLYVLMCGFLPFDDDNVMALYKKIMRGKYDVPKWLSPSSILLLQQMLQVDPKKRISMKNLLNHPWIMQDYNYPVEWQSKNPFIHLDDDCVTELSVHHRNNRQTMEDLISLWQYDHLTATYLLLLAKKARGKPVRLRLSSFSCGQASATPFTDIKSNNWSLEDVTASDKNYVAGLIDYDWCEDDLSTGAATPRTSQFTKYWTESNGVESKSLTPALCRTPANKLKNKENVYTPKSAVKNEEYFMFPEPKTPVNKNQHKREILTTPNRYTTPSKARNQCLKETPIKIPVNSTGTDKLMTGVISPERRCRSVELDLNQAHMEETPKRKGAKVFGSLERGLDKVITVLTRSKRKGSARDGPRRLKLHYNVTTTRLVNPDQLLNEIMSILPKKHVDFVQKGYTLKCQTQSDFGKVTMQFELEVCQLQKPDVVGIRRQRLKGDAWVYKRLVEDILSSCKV

[14] = biological target: Sodium-dependent serotonin transporter (Homo sapiens) (UniProt P31645); conditions: Compound concentration 10.0 uM
[15] = biological target: Calcium/calmodulin-dependent protein kinase type II subunit delta (Homo sapiens) (UniProt Q13557); experiment: CAMK2D SGC Tm panel (DSF); conditions: for ΔTm: Compound concentration 10.0 uM
Calcium/calmodulin-dependent protein kinase type II subunit delta (Homo sapiens), sequence (Q13557 whole entry): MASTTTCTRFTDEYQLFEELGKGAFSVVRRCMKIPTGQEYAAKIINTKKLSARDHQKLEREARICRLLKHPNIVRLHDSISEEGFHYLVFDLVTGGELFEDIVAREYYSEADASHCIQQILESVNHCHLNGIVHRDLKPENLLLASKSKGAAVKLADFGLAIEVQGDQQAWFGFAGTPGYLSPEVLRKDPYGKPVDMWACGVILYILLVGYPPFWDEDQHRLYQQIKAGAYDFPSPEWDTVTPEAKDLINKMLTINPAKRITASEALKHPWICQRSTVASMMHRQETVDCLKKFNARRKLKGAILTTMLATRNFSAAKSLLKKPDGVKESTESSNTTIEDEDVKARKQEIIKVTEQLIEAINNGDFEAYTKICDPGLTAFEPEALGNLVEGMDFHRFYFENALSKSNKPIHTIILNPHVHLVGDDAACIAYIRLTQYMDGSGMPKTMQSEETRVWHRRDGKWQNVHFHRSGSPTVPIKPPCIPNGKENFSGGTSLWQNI

Row | delta Tm Staurosporine positive control [1] | ΔTm [1] | delta Tm Staurosporine positive control [2] | ΔTm [2] | inhibition [3] [%] | delta Tm Staurosporine positive control [4] | ΔTm [4] | delta Tm Staurosporine positive control [5] | ΔTm [5] | inhibition [6] [%] | inhibition [7] [%] | delta Tm Staurosporine positive control [8] | ΔTm [8] | delta Tm Staurosporine positive control [9] | ΔTm [9] | delta Tm Staurosporine positive control [10] | ΔTm [10] | delta Tm Staurosporine positive control [11] | ΔTm [11] | inhibition [12] [%] | Structure (SMILES) | also measured
1 | 7.3 | -0.288 | 4.89 | -0.362 | 9.17 | 3.67 | 0.376 | 0.177 | 0.0215 | 48.2 | 4.13 | 7.67 | 0.202 | 16.5 | 0.943 | 11.5 | 0.976 | 1.98 | 0.812 | 10.2 | COC[C@H](NC(=O)c1ccn(S(C)(=O)=O)c1)C(=O)Nc1nc(-c2cccc(-c3ccn(C)n3)c2)cs1 | delta Tm Staurosporine positive control [13]: 14; ΔTm [13]: -0.053; inhibition [14]: 27.5%; delta Tm Staurosporine positive control [15]: 16; ΔTm [15]: 0.157
2 | 7.3 | -0.415 | 4.89 | -0.347 | 12.4 | 3.67 | 0.0986 | 0.177 | -0.179 | 86.8 | 7.09 | 7.67 | 0.2 | 16.5 | 0.205 | 11.5 | 1.13 | 1.98 | 0.442 | 11.2 | C[C@H](NC(=O)c1cn(C2(C#N)CC2)cn1)C(=O)Nc1nc(-c2cccc(-c3ccn(C)n3)c2)cs1 | delta Tm Staurosporine positive control [13]: 14; ΔTm [13]: 0.116; inhibition [14]: 17.3%; delta Tm Staurosporine positive control [15]: 16; ΔTm [15]: 0.121
